How the values were obtained:
[1] = format: physicochemical; conditions: pH 7.4
Procedure: In the present invention, a study for solubility of favipiravir active substance was conducted.

lung tissue = test system: lung tissue; design: species or system rats; conditions: rat, in vivo
[2] = pH analysis of compositions containing favipiravir; format: physicochemical
Procedure: In the present invention, pH analysis was performed for the composition containing favipiravir. […] When it is formulated with phosphate buffer, pH values thereof approach 7,4. Therefore, in consideration of all combinations, the pH interval for the formulations was kept in the range of 3.5-8.0.

NC(=O)c1nc(F)c[nH]c1=O [favipiravir]
solubility [1]: further increased
histological damage scores of the lungs (H&E) (lung tissue): not statistically different
lung histology under light microscopy (lung tissue): Normal lung histology
pH values ([2]; formulated with phosphate buffer): ~7,4
smallest pH value ([2]; in combinations of physiological saline, half physiological saline, and HP-β-cyclodextrin): 3.56-3.62
